Converted amounts (≈) assume the structure as drawn. “And” between values parts separate entries of the source, which are not always exact repeats. Identical values can stand only once. “Also recorded” adds a separate entry of the source. Counter-ions that a name gives are not always drawn. Like-named read-outs stand apart in the source and are kept apart here.
Columns and labels:
[1] = cited from earlier work
[2] = tested on: human salivary microbial flora; assay: Minimal total inhibition concentration of ciprofloxacin for human salivary microbial flora (Example XI); type: cell-based; settings: 1 h, aerobic blood agar
Method: (§1) Source of human salivary flora: undiluted saliva freshly collected from the mouth of a healthy adult who had refrained from fluid or food intake for three hours after breakfast prior to saliva collection.
Antibacterial agent: Cipro (a member of the quinolone group) I.V. 200 mg in 20 ml (1%) for intravenous infusion. […] Division Bayer Corporation. Procedure:
1) An aliquot of 1 ml of the Cipro solution, 1%, was added to 1.5 ml to make a total volume of 2.5 ml, equivalent to a 4 mg/ml concentration of the antibacterial agent in saliva.
2) An aliquot of 0.2 ml of the 4 mg/ml Cipro salivary solution was pipetted out for serial double dilutions in saliva in test tubes to the final concentrations of 4, 2, 1, 0.5, 0.25 and 0.12 mg of Cipro per ml, respectively.
3) All tubes containing saliva with different concentrations of Cipro were incubated in 37 degrees Celsius for one hour.
4) At the end of the one-hour incubation, 0.1 ml of the salivary Cipro solution was pipetted from each test tube and inoculated on the surface of a blood agar plate. An aliquot of 0.1 ml saliva sample containing no Cipro was spread on the surface of a blood agar plate as control.
(§2) 5) After 18 hours of incubation in 37 degrees Celsius aerobically, the growth on the blood agar plates was inspected and compared for the presence or absence of bacterial colonies.

[3] = tested on: human salivary microbial flora; assay: Minimal total inhibition concentration of tetracyclines for human salivary microbial flora (Example X); type: cell-based; settings: for bacterial growth from treated saliva: 1 h, aerobic blood agar
Method: as §1
Antibacterial agent: Doxycycline cyclate (a tetracycline) for injection USP, equivalent to 100 mg Doxycycline (Fugusawa USA, Inc., Deerfield, IL 60015-2548. Procedure:
1) An adequate amount of saliva was added to the vial of doxycycline to make a total volume of suspension of 3.1 ml, equivalent to a 32 mg/ml concentration of the antibacterial agent.
2) An aliquot of 0.2 ml of the 32 mg/ml doxycycline salivary solution was pipetted out for serial double dilutions in saliva in test tubes to the final concentrations of 32, 16, 8, 4, 2, 1, 0.5, 0.25 and 0.12 mg of doxycycline per ml.
3) All tubes containing saliva with different concentrations of doxycycline were incubated in 37 degrees Celsius for one hour.
4) At the end of the one-hour incubation, 0.1 ml of the salivary doxycycline solution was pipetted from each test tube and inoculated on the surface of a blood agar plate. An aliquot of 0.1 ml saliva sample containing no antibacterial agent was spread on the surface of a blood agar plate as control.
as §2

[4] = cited from earlier work; remark: listed apart in the source
[5] = Topical dry dosage treatment of minor aphthous ulcers, gingivitis and periodontal infections; type: in vivo, human; settings: 50 mg dry dosage form, four times a day
Excerpt: The administration of the medicament depends upon the type of infection to be treated and the type and dosage of the antibacterial agent used. The appropriate antibacterial agent, dosage and treatment regimen can readily be determined by someone having ordinary skill in this art. […] Thorough tooth cleaning is advised prior to introduction of the medicament to an infected area.

[6] = Local concentration of penicillin in saliva after a troche containing 50 mg penicillin G; type: in vivo, human; settings: assuming troche is dissolved in 0.1 ml of saliva
Method: The local concentration of penicillin in the saliva was determined as follows. […] This loculated pocket of saliva was not swallowed and was not to be diluted with excess saliva from other parts of the mouth for one hour. Two samples were taken for assay to determine the peak and trough local concentrations of penicillin during the one-hour duration of medicinal treatment. At the time when the troche was completely dissolved and one hour later, aliquots of 10 microliters were pipetted from this pocket of saliva solution at the site of medication, representing the peak level and the trough level of antibiotic concentration, and transferred into 10 ml of distilled water to make a 1:1.000 dilution and into 1 ml of distilled water to make a 1:100 dilution, respectively. The diluted saliva antibiotic solutions were passed through a sterile bacteria-filter to remove any bacterial or fungal contaminants of the oral flora.
For determination of the peak concentration, 1 ml of the bacteria-free filtrate was further diluted with 9 ml of nutrient broth to achieve a 1:10,000 dilution of the saliva. Then a serial two-fold dilution was made of this 1:10,000 diluted saliva sample with an equal volume of nutrient broth in a roll of test tubes to obtain a series of 1 ml aliquots of nutrient broth in which the saliva was diluted to 20,000, 40,000, 80,000, 160,000, 320,000, 640,000, 1,280,000 and 2,560,000 folds respectively. […] Thus the final dilutions of the saliva sample were in the range of 40,000 to 5,120,000 folds.
For determining the trough concentration, the entire 1 ml of the 1:100 diluted saliva filtrate was used to make the serial dilutions so that the final dilutions of saliva sample were in the range of 4,000 to 256,000 folds in the final test culture.
As control standards, a series of test tubes containing 1 ml of nutrient broth with varying concentrations of penicillin G potassium salt ranging from 0.1 units to 10 units/ml were similarly mixed with an equal volume of nutrient broth freshly inoculated with the standard tubes of Staphylococcus aureus. Both the test and control standard tubes were incubated at 37° C. for 18 hours. Among the test tubes showing no gross evidence of bacterial growth, the one containing the highest dilution of saliva and the one containing the least amount of penicillin G were considered as having the identical concentration of penicillin, i.e. the MIC of the staphylococcus aureus.

[7] = Local concentration of oxytetracycline hydrochloride in saliva after a 50 mg troche; settings: for peak concentration locally at the site of the ulcer: assuming troche is dissolved in 0.1 ml of saliva
Excerpt: The final concentrations of oxytetracycline in the control standard nutrient broth were 0.25 mcg/ml, 0.5 mcg/ml, 1.0 mcg/ml, 2.0 mcg/ml, 4.0 mcg/ml, and 8.0 mcg/ml. The final dilutions of saliva sample were 1/50,000, 1/100,000, 1/200,000, 1/400,000, 1/800,000 and 1/1,600,000 for the peak concentration test tubes and 1/4,000. 1/8,000, 1/16,000 and 1/32,000 for the trough concentration test tubes. The Staphylococcus aureus (ATCC 29213) was also used as the standard test microorganism.

O=C1CCC(N2C(=O)c3ccccc3C2=O)C(=O)N1 (centres unmarked) [Thalidomide]
effectiveness of treatment ([1]; earlier treatments of oral infections / aphthous ulcers): effective in some HIV-infected patients | adverse effect ([1]; literature): teratogenic

O=C(O)c1cn(C2CC2)c2cc(N3CCNCC3)c(F)cc2c1=O [ciprofloxacin]
bacterial growth from treated saliva ([2]; 0.5 mg/ml): A few surviving or uninhibited bacteria grew into colonies | bacterial growth from treated saliva ([2]; 0.5, 0.25 and 0.12 mg/ml): Varying numbers of bacterial colonies were observed | bacterial growth from treated saliva ([2]; 1, 2 and 4 mg/ml): either destroyed or totally inhibited | bacterial growth from treated saliva ([2]; 1, 2 and 4 mg/ml, listed as Cipro): No bacterial colonies were observed

C[C@H]1c2cccc(O)c2C(O)=C2C(=O)[C@]3(O)C(O)=C(C(N)=O)C(=O)[C@@H](N(C)C)[C@@H]3[C@@H](O)[C@@H]21 [doxycycline hyclate]
bacterial growth from treated saliva ([3]; 0.5 mg/ml): A few surviving or uninhibited bacteria grew into colonies | bacterial growth from treated saliva ([3]; 0.5, 0.25 and 0.12 mg/ml): Varying numbers of bacterial colonies were observed | bacterial growth from treated saliva ([3]; 1, 2, 4, 8, 16, 32 mg/ml): No bacterial colonies were observed; also recorded: either destroyed or totally inhibited | MIC ([3]; read-out: minimal total inhibition concentration, human salivary microbial flora): ~1000 mg/L (≈ 2250 µM) | peak serum level ([4]; intravenous injection of 100 mg): 2.5 µg/mL | peak serum level ([4]; intravenous injection of 200 mg): 2.6 µg/mL | peak serum level ([4]; oral 200 mg, fasting adults): 2.6 to 3 µg/mL | peak serum concentration ([4]; oral ingestion of 100, fasting adults): 1.5 to 2.1 µg/mL | patients with complete relief of pains within about 48 hours [5]: over 90% | time to complete relief of pains [5]: ≤ 48 h

CCCCCCCCCCCCCCCCCC(=O)O [magnesium stearate]
initial concentration at the ulcer [6]: 10 mg/mL | peak concentration locally at the site of the ulcer [7]: 10 mg/mL

CN(C)[C@@H]1C(=O)C(C(N)=O)=C(O)[C@@]2(O)C(=O)C3=C(O)c4c(O)cccc4[C@@](C)(O)[C@H]3[C@H](O)[C@@H]12 [oxytetracycline hydrochloride]
trough concentration in saliva ([7]; 50 mg oxytetracycline hydrochloride troche, one hour, 60 min, hydrochloride): 8 mg/mL | initial peak concentration in saliva ([7]; 50 mg oxytetracycline hydrochloride troche, two subjects, hydrochloride): 800 mg/mL and 400 to 800 mg/mL | peak concentration locally at the site of the ulcer [7]: 400 to 800 mg/mL

CN(C)[C@@H]1C(=O)C(C(N)=O)=C(O)[C@@]2(O)C(=O)C3=C(O)c4c(O)cccc4[C@@](C)(O)[C@H]3C[C@@H]12 [tetracycline HCL]
patients with complete relief of pains within about 48 hours [5]: over 90% | time to complete relief of pains [5]: ≤ 48 h

Reference: patent US6248718A, “Lesion-directed dry dosage forms of antibacterial agents for the treatment of acute mucosal infections of the oral cavity” (priority 1999, dated 2001)
